Read-outs that look alike come from different tables or passages of the source.
Columns and labels:
[1] = test system: HIV-1 (IIIB strain); assay type: cell-based; settings: for EC50: anti-HIV-1 activity; for SI: selectivity index (CC50/EC50)
Procedure: Compounds. Compounds were solubilized in DMSO at 200 mM and then diluted into culture medium.
(§1) Cells and viruses. MT-4, C8166,H9/IIIB and CEM cells were grown at 37° C. in a 5% CO2 atmosphere in RPMI 1640 medium, supplemented with 10% fetal calf serum (FCS), 100 IU/mL penicillin and 100 μg/mL streptomycin. Cell cultures were checked periodically for the absence of mycoplasma contamination with a MycoTect Kit (Gibco). Human immunodeficiency virus type-I (HIV-1, IIIB strain) was obtained from supernatants of persistently infected H9/IIIB cells.
HIV Titration. Titration of HIV was performed in C8166 cells by the standard limiting dilution method (dilution 1:2, four replica wells per dilution) in 96-well plates. The infectious virus titre was determined by light microscope scoring of cytopathicity after 4 days of incubation and the virus titres were expressed as CCID50/mL.
(§2) Anti-HIV Assays. Activity of the compounds against HIV-1 and HIV-2 multiplication in acutely infected cells was based on the inhibition of virus-induced cytopathicity in MT-4 and C8166 cells, respectively. Briefly, 50 μL of culture medium containing 1×10^4 cells were added to each well of flat-bottom microtiter trays containing 50 μl of culture medium with or without various concentrations of the test compounds. Then 20 μL of an HIV suspension containing 100 CCID50 were added. After a 4-day incubation at 37° C., the number of viable cells was determined by the 3-(4,5-dimethylthiazol-[…])-2,5-diphenyltetrazolium bromide (MTT) method. Cytotoxicity of the compounds was evaluated in parallel with their antiviral activity. It was based on the viability of mock-infected cells, as monitored by the MTT method.

[2] = test system: mock-infected MT-4 cells; assay: Cytotoxicity: viability of mock-infected cells by the MTT method; assay type: cell-based, human
Procedure: as §1, §2

[3] = acutely infected MT-4 cells, MTT

Row | Compound | EC50 ([1]; HIV-1-infected MT-4 cells) [µM] | SI [1] | CC50 [2] [µM] | EC50 [1, 3] [µM] | CC50 ([2]; MTT) [µM]
1 | CCC(c1cc(=O)[nH]c(SC2CCCCC2)n1)c1c(Cl)cccc1Cl (centres unmarked) [MC 1003] | 3.6 | >55.5 | > 200 | – | –
2 | Cc1c(Cc2c(Cl)cccc2Cl)nc(SC2CCCCC2)[nH]c1=O [MC 917] | 22 | >9 | > 200 | – | –
3 | CCC(C)Nc1nc(Cc2c(F)cccc2F)cc(=O)[nH]1 (centres unmarked) [MC 945] | 0.13 | >1,540 | > 200 | – | –
4 | CCCNc1nc(Cc2c(F)cccc2F)cc(=O)[nH]1 [MC 1078] | 0.11 | 1,818 | 200 | – | –
5 | CN1CCN(c2nc(Cc3c(F)cccc3F)cc(=O)[nH]2)CC1 [MC 1183] | – | – | – | 7.1 | > 200
6 | CCc1c(Cc2c(F)cccc2F)nc(SC(C)CC)[nH]c1=O (centres unmarked) [MC 1038] | 0.1 | >2,000 | > 200 | – | –
7 | CCC(C)Sc1nc(Cc2ccccc2N)cc(=O)[nH]1 (centres unmarked) [MC 825] | 21.2 | >9 | > 200 | – | –
8 | Cc1c(Cc2c(F)cccc2F)nc(SC(C)C)[nH]c1=O [MC 881] | 0.05 | >4,000 | > 200 | – | –
9 | CC(C)CSc1nc(C(C)c2c(F)cccc2F)cc(=O)[nH]1 (centres unmarked) [MC 1044] | 0.05 | >4,000 | > 200 | – | –
10 | Cc1c(Cc2c(F)cccc2F)nc(N2CCN(C)CC2)[nH]c1=O [MC 1203] | – | – | – | 0.36 | > 200
11 | C=CCc1c(Cc2ccccc2)nc(SC(C)CC)[nH]c1=O (centres unmarked) [MC 852] | 3 | >67 | > 200 | – | –
12 | CNc1nc(Cc2c(F)cccc2F)cc(=O)[nH]1 [MC 1167] | 1.5 | >133 | > 200 | – | –
13 | CCC(C)Sc1nc(Cc2ccc(C(F)(F)F)cc2)cc(=O)[nH]1 (centres unmarked) [MC 959] | 25 | 8 | 200 | – | –
14 | CSc1nc(Cc2c(Cl)cccc2Cl)cc(=O)[nH]1 [MC 877] | 3.2 | >62 | > 200 | – | –
15 | CC1CCC(C)C(Oc2nc(Cc3ccccc3)cc(=O)[nH]2)C1 (centres unmarked) [MC 507] | 3.5 | 40 | 143 | – | –
16 | CCC(C)Sc1nc(Cc2ccccc2C)c(C)c(=O)[nH]1 (centres unmarked) [MC 844] | 1.7 | >118 | > 200 | – | –
17 | O=c1cc(Cc2c(F)cccc2F)nc(NC2CCCC2)[nH]1 [MC 1022] | 0.09 | >2,222 | > 200 | – | –
18 | Cc1c(C(C)c2c(F)cccc2F)nc(NC2CCCC2)[nH]c1=O (centres unmarked) [MC1129, 2-Cyclopentylamino-6-{1-(2,6-difluorophenyl)ethyl}-3,4-dihydro-5-methylpyrimidin-4-(3H)-one] | 0.02 | 4,500 | 90 | – | –
19 | CSCSc1nc(Cc2c(F)cccc2F)c(C)c(=O)[nH]1 [MC 1162, 6-(2,6-Difluorophenylmethyl)-3,4-dihydro-5-methyl-2-(methylthiomethyl)thiopyrimidin-4(3H)-one] | – | – | – | 0.12 | 30
20 | CC(c1cc(=O)[nH]c(NC2CCCCC2)n1)c1c(F)cccc1F (centres unmarked) [MC 1180] | – | – | – | 0.02 | 56
21 | CCCCNc1nc(C(C)c2c(F)cccc2F)c(C)c(=O)[nH]1 (centres unmarked) [MC 1187] | – | – | – | 0.01 | 83
22 | CC(C)Nc1nc(C(C)c2c(F)cccc2F)cc(=O)[nH]1 (centres unmarked) [MC 1191] | – | – | – | 0.03 | 115
23 | CCc1c(Cc2c(F)cccc2F)nc(SCSC)[nH]c1=O [MC 1157] | – | – | – | 0.11 | 50
24 | Cc1c(Cc2c(F)cccc2F)nc(SC2CCCC2)[nH]c1=O [MC 922] | 0.08 | >2,500 | > 200 | – | –
25 | CC(c1cc(=O)[nH]c(SC2CCCCC2)n1)c1cccc2ccccc12 (centres unmarked) [MC 974] | 0.14 | 321.4 | 45 | – | –
26 | CCC(C)Nc1nc(Cc2c(F)cccc2F)c(C)c(=O)[nH]1 (centres unmarked) [MC 1130] | 0.07 | 2,857 | 200 | – | –

Source: patent publication US6545007B2, “Methods for inhibiting the transmission of HIV using topically applied substituted 6-benzyl-4-oxopyrimidines” (Idenix (Cayman) Limited, priority 2000, dated 2003)
